Measured values: patent US20100143313A1, “HOMOGENEOUS DIFFERENTIATION OF HEPATOCYTE-LIKE CELLS FROM EMBRYONIC STEM CELLS” (THE GENERAL HOSPITAL CORPORATION, priority 2008, published 2010)

What was measured:
Type in all cases: cell-based, murine
[1] = system: ESDE cells; test: Urea secretion of ESDE cells into culture media (colorimetric assay); conditions: DMSO-stimulated ESDE cells
Description: (§1) FIGS. 3A and 3B are bar graphs showing albumin and urea secretion rates of hepatocyte-like cells. Albumin secretion was measured at various timepoints by ELISA (3A). Urea secretion was measured with a colorimetric assay (3B). […] Urea and albumin secretion rates increased up to forty days of culture. […] Values represent mean±SD of two experiments and repeated in triplicate.
(§2) The maturation of ESDE cells into functional hepatocytes was evaluated by measuring the secretion of albumin and urea into the culture media (FIG. 3). […] Neither albumin nor urea secretion was detectable before day twenty in any of the other conditions tested.
(§3) At day fourteen of culture, the ES cells were stimulated with the chemical agonists listed on Table 1 (above) in high glucose or low glucose DMEM supplemented with 10% FBS and 0.2 μM dexamethasone. The media with chemical agonists were exchanged every other day until day twenty. At day twenty of culture, the ES cells were cultured without the chemical agonists in high glucose or low glucose DMEM supplemented with 10% FBS and 0.2 μM dexamethasone. […]
(§4) Collected medium samples were analyzed for secreted concentrations of mouse albumin by ELISA. […] Urea content was determined with diacetyl monoxime using a commercially available kit (StanBio Laboratory, Boerne, Tex.). The absorbance was measured with a Thermomax microplate reader (Molecular Devices, Sunnyvale, Calif.).

[2] = system: ESDE cells; test: Albumin secretion of ESDE cells into culture media (ELISA); conditions: DMSO induction, low glucose
Description: as §1, §2, §3, §4

[3] = system: cytochrome P450 activity (CYP1A1); test: EROD assay for inducible cytochrome P450 activity; conditions: two-day exposure to 3-methylcholanthrene, day 36
Description: Day-thirty-four ES-derived cells were stimulated with 2 mM 3-methycholanthrene (3-MC) for two days. The conversion of ethyoxyresorufin to fluorescent resorufin was assayed on day thirty-six of culture. Values represent mean±SEM of three experiments and repeated in duplicate.
The EROD assay was used to measure inducible cytochrome P450 activity (CYP1A1) of the hepatocyte-like cells.
The drug metabolizing activity of the ES cell-derived hepatocytes were evaluated using an ethoxyresorufin 0-de-ethylase (EROD) assay. Day thirty-four ES cells were stimulated with 2 mM 3 methycholanthrene (3-MC) for two days. On day 36, the media was replaced with 10 μM ethoxyresorufin (Invitrogen) and 80 μM dicumarol (Sigma) in Earle's Balanced Salt Solution. Solution samples were collected at 5, 15, 25, and 35 minutes after the introduction of substrates. The increase in fluorescence intensity caused by conversion of ethyoxyresorufin to fluorescent resorufin estimates the CYP1A1 activity in hepatocytes.

[4] = system: ESDE cells; test: Glycogen staining (periodic acid-Schiff); conditions: after thirty-two days of differentiation
Description: Rat primary hepatocytes are capable of secreting albumin at a rate of approximately 2.0 μg/hour/10^6 cells, and the mouse hepatocarcinoma cell line Hepal-6 can produce albumin at a rate of 4.7 μg/hour/10^6 cells. The ability of the ES-derived hepatocyte-like cells to produced and store glycogen was assessed using a periodic acid-Schiff stain. […] The capacity for the hepatocyte-like cells to actively synthesize glycogen was seen after the culture media was switched from the low-glucose differentiation media to high-glucose DMEM supplemented with 10% FBS and 0.2 μM dexamethasone for two days. More intense magenta staining of the hepatocyte-like cells was found after the two-day incubation in high-glucose media.
Periodic acid-Schiff staining kit was purchased from Sigma. Cells were fixed with 4% paraformaldehyde in PBS for 20 minutes at room temperature. Staining procedures were performed according to manufacturer's instruction.

[5] = system: ESDE cells; test: RT-PCR gene expression of ESDE cells after agonist induction; conditions: for Transcriptional expression of tyrosine aminotransferase (Tat) / expression of albumin (Alb) and cytochrome P450 subunit 3a13 (Cyp3a13) mRNA: RT-PCR; for Transcriptional expression of tyrosine aminotransferase (Tat): over culture time; for expression of albumin (Alb) and cytochrome P450 subunit 3a13 (Cyp3a13) mRNA: day twenty-two, increased at day thirty
Description: Similarly, glucose-6-phosphatase (G6pc) mRNA expression could only be detected with DMSO or RA stimulation. […] Visceral endoderm marker Sox7 was also weakly expressed in every condition except with DMSO induction.
At day fourteen of culture, the ES cells were stimulated with the chemical agonists listed on Table 1 (above) in high glucose or low glucose DMEM supplemented with 10% FBS and 0.2 μM dexamethasone. The media with chemical agonists were exchanged every other day until day twenty. At day twenty of culture, the ES cells were cultured without the chemical agonists in high glucose or low glucose DMEM supplemented with 10% FBS and 0.2 μM dexamethasone. The ES cells were cultured up to day fifty with media exchange every other day.
RNA isolation was performed using the Nucleospin RNAII protocol (Clontech, Mountain View, Calif., USA). Following the removal of genomic DNA with DNase, the column was washed and RNA was eluted with distilled water. The RNA purity was quantified using the absorbance ratio at 260 nm (nucleic acids) and 280 nm (protein) and was greater than 1.9. One-Step RT-PCR kit (Qiagen, Valencia, Calif., USA) was used to analyze gene expression. Reactions were initiated using 10 ng RNA and 0.6 μM primer. RT reaction was conducted at 50° C. and 95° C. for 15 min. Three-step cycling was performed: denaturation at 94° C. for 30 s, annealing at 55° C. for 30 s, and extension at 72° C. for 1 min, with a final extension time of 10 min at 72° C. The number of cycles varied between 30 and 35. Following PCR, samples were run on a 2% agarose gel, stained with ethidium bromide, and imaged using the Fluor-X Multiimager (Bio-Rad, Hercules, Calif., USA). Mouse liver total RNA (Ambion, Austin, Tex., USA) was used as a control for hepatocyte gene expression. Markers: Foxa2, AFP, Sox 17, Albumin, GATA1, Runx2, Foxf1, NKx2.5, Tal1, Pax 6, AAT, CK8, CK18, TTR, CYP3A13, Brachyury, Goosecoid, β-actin.

[6] = system: albumin promoter-driven GFP expression in ES-derived endoderm (ESDE) cells; test: Screening of agonists for albumin promoter-driven GFP expression in ES-derived endoderm (ESDE) cells, flow cytometry; conditions: agonist d14-d20, 2% DMSO, 1 μM Azacytidine, 1 μM Retinoic Acid, 100 μM SNAP, 1 μM A23187, 1 nM vasopressin, 200 μM IBMX, 2 mM phenobarbital, 10 mM nicotinamide, 0.1 μM PGE2; for Cell fraction of day 30 ES-derived cells positive for albumin promoter-driven GFP expression, High Glucose: high glucose DMEM; for Cell fraction of day 30 ES-derived cells positive for albumin promoter-driven GFP expression, Low Glucose: low glucose DMEM
Description: A transgenic ES cell for enhanced green fluorescence protein (GFP) driven by the albumin promoter was used or the purpose of quickly screening different stimulants for hepatic differentiation. After a total of 30 days of differentiation, the various agonists were evaluated for their ability to induce ES-derived endoderm (ESDE) to express the albumin gene. When the ESDE cells were cultured in high glucose conditions, none of the agonists tested were able to increase cell population fraction positive for GFP expression over 10% (Table 1):
Additionally, for the purpose of quickly screening different stimulants for hepatic differentiation, a transgenic ES cell for enhanced green fluorescence protein (GFP) driven by the albumin promoter was used for these preliminary studies. The transgenic murine J1 cell line was obtained from the National Cancer Center Research Institute (Tokyo, Japan). The murine ES cell line D3 (ATCC, Manassas, Va.) was also used to assess the differentiation of ES cells into endoderm and hepatic lineage cells. Undifferentiated ES cells were cultured in Knockout DMEM (Gibco), supplemented with 15% replacement serum, 4 mM L-glutamine (Gibco), 100 U/mL penicillin (Gibco), 100 U/ml streptomycin (Gibco), 10 μg/mL gentamycin (Gibco), 1000 units/mL Leukemia Inhibitory Factor (LIF; Chemicon International, Temecula, Calif.), and 0.1 mM 2-mercaptoethanol (Gibco) on 0.1% gelatin-coated T-75 tissue culture flasks. Culture medium was replaced every day and cells were passaged at dilutions ranging from 1:5 to 1:20 at least once a week. Cells were cultured at 37° C. and in a 5% CO2 incubator.
To isolate the ES-derived cells in co-culture, the ES cells cultured on top of collagen sandwiched hepatocytes were incubated with dispase (1 mg/mL) (Gibco) for 30-60 min at 37° C. After incubation, the ES-derived cells were detached by gentle pipetting. The collagen-sandwiched hepatocytes remained at the bottom of the dish, thus allowing separation of the ES-derived cells from the primary hepatocytes. The isolated ES-derived cells were replated (day 10) on collagen gel coated 35-mm dishes at a density of 400,000 ES-derived cells per dish and cultured in high glucose DMEM supplemented with 10% FBS, 100 ng/mL oncostatin-M (Sigma), 0.2 μM dexamethasone (Sigma), and insulin/transferrin/selenious acid (5 μg/mL, 5 μg/mL, 5 ng/mL, respectively) (BD Biosciences, San Jose, Calif.). The replated cells were allowed to recover for four days before induction of hepatocyte differentiation. […]
Alternatively, Cells were detached from the collagen surface using 10 U/ml collagenase and 1 U/ml dispase in serum-free DMEM for 30 minutes. […] Collected cells were analyzed by flow cytometry (Epics Altra; Becton Dickinson). FACS data was analyzed using CellQuest software. […]

SMILES | glucose-6-phosphatase (G6pc) mRNA expression ([5]; RT-PCR after induction) | Transcriptional expression of tyrosine aminotransferase (Tat) [5] | expression of albumin (Alb) and cytochrome P450 subunit 3a13 (Cyp3a13) mRNA [5] | Cell fraction of day 30 ES-derived cells positive for albumin promoter-driven GFP expression, High Glucose [6] | Cell fraction of day 30 ES-derived cells positive for albumin promoter-driven GFP expression, Low Glucose [6] | other results
C[S+](C)[O-] [DMSO, Dimethyl sulfoxide] | detected | highest at day thrity | could be detected by day twenty-two |  |  | urea secretion rate ([1]; day 22): 0.36 μg/hour/106 cells; urea secretion rate ([1]; day forty): 2.45 μg/hour/10^6 cells; albumin secretion rate ([2]; day forty): 3.09 μg/hour/10^6 cells; albumin secretion rate ([2]; day twenty-two): 0.34 μg/hour/10^6 cells; EROD activity compared to cells cultured in high glucose media without DMSO stimulation [3]: 20 fold; EROD activity over cells cultured in low glucose media without DMSO stimulation [3]: 4.5 fold; glycogen stores (periodic acid-Schiff stain) [4]: visible glycogen stores; Definitive endoderm marker Sox17 expression ([5]; RT-PCR after induction): down-regulated
CC1=C(/C=C/C(C)=C/C=C/C(C)=C/C(=O)O)C(C)(C)CCC1 [Retinoic Acid, all-trans retinoic acid] | detected | highest at day thrity | could be detected by day twenty-two |  |  | 
CCCCC[C@H](O)/C=C/[C@H]1[C@H](O)CC(=O)[C@@H]1C/C=C\CCCC(=O)O [PGE2, prostaglandin E2] |  |  |  | 7.8% | 57% | 
NC(=O)CC[C@@H]1NC(=O)[C@H](Cc2ccccc2)NC(=O)[C@H](Cc2ccc(O)cc2)NC(=O)[C@@H](N)CSSC[C@@H](C(=O)N2CCC[C@H]2C(=O)N[C@@H](CCCN=C(N)N)C(=O)NCC(N)=O)NC(=O)[C@H](CC(N)=O)NC1=O [vasopressin] |  |  |  | 4.5% | 59% | 
